Literature values, collected in patent publication US20260183237A1, “NANOEMULSION WITHOUT PROPYLENE GLYCOL” (BIOFRONTERA, INC., priority 2023, published 2026).

octanol-water partition coefficient (logP): around −3
Compound: NCC(=O)CCC(=O)O [5-aminolevulinic acid]
